Measured values as given in the NIST ThermoML archive (doi:10.1016/j.jct.2008.06.017).

How the values were obtained:
[1] = xn = mol fraction of the nth substance listed; details: Liquid, Vibrating tube method
[2] = Liquid, Vibrating tube method

COC(=O)OC [dimethyl carbonate] + C=CCOC(=O)C(=C)C
[1], x1 = 1
Details | mass density [kg/m3]
293.15 K | 1069.79
303.15 K | 1056.75
313.15 K | 1043.37

COC(=O)OC [dimethyl carbonate] + C=COC(C)=O
[1], x1 = 1
Details | mass density [kg/m3]
293.15 K | 1069.79
303.15 K | 1056.75
313.15 K | 1043.37

COC(=O)OC [dimethyl carbonate] + C=Cc1ccccc1
[1], x1 = 1
Details | mass density [kg/m3]
293.15 K | 1069.79
303.15 K | 1056.75
313.15 K | 1043.37

C=Cc1ccccc1 [styrene]
[2]
Details | mass density [kg/m3]
293.15 K | 906.26
303.15 K | 897.392
313.15 K | 888.472

C=Cc1ccccc1 [styrene] + COC(=O)OC
[1]
Details | mass density [kg/m3]
293.15 K, x2 = 0 | 906.26
293.15 K, x2 = 0.0246 | 909.146
293.15 K, x2 = 0.0498 | 912.112
293.15 K, x2 = 0.1006 | 918.267
293.15 K, x2 = 0.1506 | 924.493
293.15 K, x2 = 0.2004 | 930.891
293.15 K, x2 = 0.2506 | 937.533
293.15 K, x2 = 0.3008 | 944.38
293.15 K, x2 = 0.3498 | 951.272
293.15 K, x2 = 0.4007 | 958.655
293.15 K, x2 = 0.4498 | 966.048
293.15 K, x2 = 0.5001 | 973.84
293.15 K, x2 = 0.5499 | 981.838
293.15 K, x2 = 0.5996 | 990.075
293.15 K, x2 = 0.6507 | 998.871
293.15 K, x2 = 0.7001 | 1007.72
293.15 K, x2 = 0.7496 | 1016.93
293.15 K, x2 = 0.7997 | 1026.61
293.15 K, x2 = 0.8501 | 1036.78
293.15 K, x2 = 0.9001 | 1047.29
293.15 K, x2 = 0.9499 | 1058.27
293.15 K, x2 = 0.9747 | 1063.93
303.15 K, x2 = 0 | 897.392
303.15 K, x2 = 0.0262 | 900.37
303.15 K, x2 = 0.0502 | 903.146
303.15 K, x2 = 0.1004 | 909.105
303.15 K, x2 = 0.1506 | 915.204
303.15 K, x2 = 0.2005 | 921.462
303.15 K, x2 = 0.2502 | 927.883
303.15 K, x2 = 0.3001 | 934.514
303.15 K, x2 = 0.3502 | 941.367
303.15 K, x2 = 0.4 | 948.407
303.15 K, x2 = 0.45 | 955.705
303.15 K, x2 = 0.5003 | 963.262
303.15 K, x2 = 0.5498 | 971.001
303.15 K, x2 = 0.5998 | 979.074
303.15 K, x2 = 0.6497 | 987.452
303.15 K, x2 = 0.7007 | 996.305
303.15 K, x2 = 0.7502 | 1005.27
303.15 K, x2 = 0.8002 | 1014.68
303.15 K, x2 = 0.85 | 1024.5
303.15 K, x2 = 0.8999 | 1034.72
303.15 K, x2 = 0.9502 | 1045.5
303.15 K, x2 = 0.975 | 1051.05
313.15 K, x2 = 0 | 888.472
313.15 K, x2 = 0.0256 | 891.333
313.15 K, x2 = 0.0501 | 894.082
313.15 K, x2 = 0.0998 | 899.822
313.15 K, x2 = 0.1514 | 905.948
313.15 K, x2 = 0.2007 | 911.977
313.15 K, x2 = 0.2506 | 918.225
313.15 K, x2 = 0.3008 | 924.745
313.15 K, x2 = 0.3499 | 931.26
313.15 K, x2 = 0.4006 | 938.218
313.15 K, x2 = 0.4501 | 945.282
313.15 K, x2 = 0.5103 | 954.115
313.15 K, x2 = 0.5503 | 960.19
313.15 K, x2 = 0.5995 | 967.947
313.15 K, x2 = 0.6499 | 976.16
313.15 K, x2 = 0.6999 | 984.624
313.15 K, x2 = 0.7503 | 993.432
313.15 K, x2 = 0.8002 | 1002.61
313.15 K, x2 = 0.8499 | 1012.09
313.15 K, x2 = 0.9001 | 1022.04
313.15 K, x2 = 0.9497 | 1032.41
313.15 K, x2 = 0.975 | 1037.84

C=COC(C)=O [vinyl acetate]
[2]
Details | mass density [kg/m3]
293.15 K | 931.95
303.15 K | 919.089
313.15 K | 906.116

C=COC(C)=O [vinyl acetate] + COC(=O)OC
[1]
Details | mass density [kg/m3]
293.15 K, x2 = 0 | 931.95
293.15 K, x2 = 0.025 | 935.258
293.15 K, x2 = 0.0504 | 938.581
293.15 K, x2 = 0.1002 | 945.231
293.15 K, x2 = 0.1537 | 952.421
293.15 K, x2 = 0.1999 | 958.65
293.15 K, x2 = 0.25 | 965.315
293.15 K, x2 = 0.3001 | 972.123
293.15 K, x2 = 0.3498 | 978.865
293.15 K, x2 = 0.4002 | 985.701
293.15 K, x2 = 0.4503 | 992.611
293.15 K, x2 = 0.5 | 999.443
293.15 K, x2 = 0.5502 | 1006.39
293.15 K, x2 = 0.6001 | 1013.38
293.15 K, x2 = 0.6495 | 1020.26
293.15 K, x2 = 0.6934 | 1026.46
293.15 K, x2 = 0.7501 | 1034.48
293.15 K, x2 = 0.7971 | 1041.1
293.15 K, x2 = 0.8499 | 1048.6
293.15 K, x2 = 0.9002 | 1055.59
293.15 K, x2 = 0.9493 | 1062.61
293.15 K, x2 = 0.975 | 1066.22
303.15 K, x2 = 0 | 919.089
303.15 K, x2 = 0.025 | 922.4
303.15 K, x2 = 0.0501 | 925.708
303.15 K, x2 = 0.0999 | 932.33
303.15 K, x2 = 0.15 | 939.009
303.15 K, x2 = 0.1998 | 945.689
303.15 K, x2 = 0.2499 | 952.431
303.15 K, x2 = 0.3004 | 959.251
303.15 K, x2 = 0.35 | 965.996
303.15 K, x2 = 0.4003 | 972.857
303.15 K, x2 = 0.4488 | 979.518
303.15 K, x2 = 0.4999 | 986.544
303.15 K, x2 = 0.5496 | 993.403
303.15 K, x2 = 0.6 | 1000.41
303.15 K, x2 = 0.6489 | 1007.22
303.15 K, x2 = 0.6986 | 1014.13
303.15 K, x2 = 0.7494 | 1021.26
303.15 K, x2 = 0.8 | 1028.36
303.15 K, x2 = 0.8496 | 1035.38
303.15 K, x2 = 0.8999 | 1042.51
303.15 K, x2 = 0.9496 | 1049.56
303.15 K, x2 = 0.9753 | 1053.22
313.15 K, x2 = 0 | 906.116
313.15 K, x2 = 0.0248 | 909.387
313.15 K, x2 = 0.0501 | 912.718
313.15 K, x2 = 0.1003 | 919.392
313.15 K, x2 = 0.1499 | 925.976
313.15 K, x2 = 0.2001 | 932.73
313.15 K, x2 = 0.25 | 939.446
313.15 K, x2 = 0.2999 | 946.16
313.15 K, x2 = 0.3502 | 953.002
313.15 K, x2 = 0.3999 | 959.753
313.15 K, x2 = 0.45 | 966.575
313.15 K, x2 = 0.4996 | 973.402
313.15 K, x2 = 0.5501 | 980.351
313.15 K, x2 = 0.5998 | 987.189
313.15 K, x2 = 0.6502 | 994.195
313.15 K, x2 = 0.7 | 1001.12
313.15 K, x2 = 0.7501 | 1008.14
313.15 K, x2 = 0.7999 | 1015.14
313.15 K, x2 = 0.8499 | 1022.15
313.15 K, x2 = 0.8995 | 1029.12
313.15 K, x2 = 0.9501 | 1036.31
313.15 K, x2 = 0.9746 | 1039.75
